Where a SMILES comes first, the peptide text is derived from it. Bounds are passed on as bounds.

One data set relates to Aβ peptides. To be noted: cited from earlier work. An excerpt: (§1) Alzheimer’s disease (AD) is a progressive neurodegenerative disorder and the most common form of dementia characterized by senile plaque (SP), which is the extracellular deposit of amyloidβ(Aβ)aggregates,and neurofibrillary tangle, which is the intracellular accumulation of phosphorylated tau protein [3]. Although highly ordered linear Aβaggregates, known as amyloid fibrils, are the major component of SP and one of the hallmark features of AD, soluble oligomers of aggregates are regarded as more cytotoxic. The therapeutic use of peptide inhibitors of pathological ...

For data set [1], the system named is rat pheochromocytoma (PC12). To be noted: cited from earlier work.
Excerpt: as §1

The test system of a further data set is Aβ (1–42). The settings on record: 100 nM of Aβ (1–42); cited from earlier work. As for the experimental part: The neutral αAC nanofibers suppressed aggregation of Aβ (1–42), without promoting the aggregation of 3RMBDof tau (Fig 2) and cytotoxicity of Aβ (1–42) against PC12 cells (Fig 7). Several brain-permeable low molecular weight compounds that suppress the aggregation of amyloidβ have been proposed as therapeutic drugs for AD [48–55]; unfortunately, the affinity of these compounds for Aβ tends to be low. For example, >100 nM of curcumin is required to inhibit the cytotoxicity of 100 nM of Aβ (1–42).

The target in another data set is T1, trypsin (Bos taurus, UniProt P00760).
T1 construct: purchased type XIII; host or cells: bovine pancreas
T1 sequence (P00760 24-246): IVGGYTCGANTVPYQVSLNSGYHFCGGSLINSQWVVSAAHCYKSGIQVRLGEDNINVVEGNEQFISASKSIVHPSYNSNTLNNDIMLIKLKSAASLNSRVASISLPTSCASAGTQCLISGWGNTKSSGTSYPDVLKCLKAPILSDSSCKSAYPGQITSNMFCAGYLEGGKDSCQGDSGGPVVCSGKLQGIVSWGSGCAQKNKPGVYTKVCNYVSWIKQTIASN
In words: Proteolytic digestion with trypsin (GPC). The class given is in vitro ADME. To be noted: 200 μM peptide or nanofiber, 12 μM trypsin (type XIII, bovine pancreas), 5 mM phosphate 100 mM NaCl pH 7.5, 37°C, GPC peak of FVIFLDVK, A220. The protocol:
The αAC peptides or the neutralαAC nanofiber (200 μM) were incubated with trypsin (12 μM, type XIII from bovine pancreas) in 5 mM phosphate buffer containing 100 mM NaCl (pH 7.5) at 37°C. The molecular mass of the digested peptides were analyzed with MALDI-TOF mass spectroscopy using a BrukerAutoflex Speed instrument. The proteolyzed sample of αAC nanofibers was centrifuged (10,000g for 5 min) to separate the peptide fragments from the nanofibers. The apparent rate of proteolysis of αAC(71–88) was estimated from gel permeation chromatography analysis using a Superdex^TMpeptide 10/300 GL column (GE Healthcare, Piscataway, NJ). Water including 30% acetonitrile and 0.1% TFA was used as the elution solvent.

Turning to DFVIFLDVKHFSPEDLTVK, in the data set with Aβ peptides, the “effect on fibril formation of Aβ peptides” value is recorded as “inhibit fibril formation”. In data set [1] (rat pheochromocytoma (PC12)), the “effect on toxicity of Aβ in PC12” value is “suppress the toxicity”. As for `COc1cc(/C=C/C(=O)CC(=O)/C=C/c2ccc(O)c(OC)c2)ccc1O` [curcumin], the “concentration required to inhibit the cytotoxicity of Aβ (1–42)” value in the data set with Aβ (1–42) is above 100 nM.

“DFVIFLDVKHFSPEDLTVK [CPP-fused αAC peptides, cell-penetrating peptide-fused type peptides of the αA-crystallin peptide]”: the “effect on Aβ fibril formation” value in the data set with Aβ peptides was “prevented Aβ fibril formation”. Besides, the “effect on Aβ toxicity” value in data set [1] is “suppress Aβ toxicity”. As for `CC[C@H](C)[C@H](NC(=O)[C@@H](NC(=O)[C@@H](N)Cc1ccccc1)C(C)C)C(=O)N[C@@H](Cc1ccccc1)C(=O)N[C@@H](CC(C)C)C(=O)N[C@@H](CC(=O)O)C(=O)N[C@H](C(=O)N[C@@H](CCCCN)C(=O)N[C@@H](Cc1c[nH]cn1)C(=O)N[C@@H](Cc1ccccc1)C(=O)N[C@@H](CO)C(=O)N1CCC[C@H]1C(=O)N[C@@H](CCC(=O)O)C(=O)N[C@@H](CC(=O)O)C(=O)N[C@@H](CC(C)C)C(=O)N[C@H](C(=O)N[C@H](C(=O)N[C@@H](CCCCN)C(=O)O)C(C)C)[C@@H](C)O)C(C)C` [αAC(71–88)] (H-FVIFLDVKHFSPEDLTVK-OH), the “fraction of αAC(71–88) digested (single cleavage) after 24 h proteolysis” value at trypsin is recorded as “ca. 90%”.

The values above are taken from PMC7380640, “Development of a brain-permeable peptide nanofiber that prevents aggregation of Alzheimer pathogenic proteins” (PLoS ONE, 2020).
